Assay results taken from paper PMC10884759, “Decreased pyruvate dehydrogenase activity in Tafazzin-deficient cells is caused by dysregulation of pyruvate dehydrogenase phosphatase 1 (PDP1)” (The Journal of Biological Chemistry, 2024).

Biological target: T1, PDP1 (PDH phosphatase 1; PDP1-His6) (Mus musculus, UniProt Q3UV70)
T1 construct: mature polypeptide (transit peptide removed; forward primer encodes ASTPQKFY after start Met), C-terminal His6 from pET-28a, E. coli BL21(DE3) with pGro7 chaperones, Ni-NTA purified
T1 sequence (Q3UV70 72-538): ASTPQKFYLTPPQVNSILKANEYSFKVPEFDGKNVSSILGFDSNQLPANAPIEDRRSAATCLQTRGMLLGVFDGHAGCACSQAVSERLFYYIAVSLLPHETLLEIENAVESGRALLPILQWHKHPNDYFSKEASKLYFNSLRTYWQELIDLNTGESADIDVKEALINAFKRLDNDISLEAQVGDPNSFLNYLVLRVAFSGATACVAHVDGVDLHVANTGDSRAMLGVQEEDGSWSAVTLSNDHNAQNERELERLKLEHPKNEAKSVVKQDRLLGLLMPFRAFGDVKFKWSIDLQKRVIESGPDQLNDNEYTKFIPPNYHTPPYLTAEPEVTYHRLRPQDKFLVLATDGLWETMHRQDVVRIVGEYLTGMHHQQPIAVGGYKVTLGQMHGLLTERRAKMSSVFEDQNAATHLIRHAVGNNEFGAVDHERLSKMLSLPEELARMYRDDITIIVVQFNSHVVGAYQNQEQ
Assay: protein-lipid overlay on PVDF, anti-His immunoblot
Type: binding
Conditions: lipid spotted at 31.25-500 μM, 1 μl; pH 7.5, 4 °C overnight, 3% BSA

SMILES | protein-lipid overlay on PVDF, anti-His immunoblot
CCCCC/C=C\C/C=C\CCCCCCCC(=O)OC[C@H](COP(=O)(O)OCC(O)COP(=O)(O)OC[C@@H](COC(=O)CCCCCCC/C=C\C/C=C\CCCCC)OC(=O)CCCCCCC/C=C\C/C=C\CCCCC)OC(=O)CCCCCCC/C=C\C/C=C\CCCCC (some centres unmarked) [TLCL] | only PDP1 was shown to bind with TLCL (Fig. 2B)
CCCCCCCC/C=C\CCCCCCCC(=O)OC[C@H](COP(=O)(O)O)OC(=O)CCCCCCC/C=C\CCCCCCCC [phosphatidic acid] | PA is also bound to PDP1 (and to E1)
